According to ChEMBL document CHEMBL1157632, “Discovery of dipeptides with high affinity to the specific binding site for substance P1-7” (J Med Chem, 2010):
The source made the active and inactive calls. The calls are words filed in the database; no cut-off is given here. Peptide text beside a SMILES is read from it.

Target: Neuromedin-K receptor (NK-3) (Homo sapiens) (UniProt P29371)
Test: Displacement of [MePhe7]-NKB from human recombinant NK3 receptor at 10 uM

Sequence of Neuromedin-K receptor (NK-3) (Homo sapiens) (P29371 whole entry, looked up): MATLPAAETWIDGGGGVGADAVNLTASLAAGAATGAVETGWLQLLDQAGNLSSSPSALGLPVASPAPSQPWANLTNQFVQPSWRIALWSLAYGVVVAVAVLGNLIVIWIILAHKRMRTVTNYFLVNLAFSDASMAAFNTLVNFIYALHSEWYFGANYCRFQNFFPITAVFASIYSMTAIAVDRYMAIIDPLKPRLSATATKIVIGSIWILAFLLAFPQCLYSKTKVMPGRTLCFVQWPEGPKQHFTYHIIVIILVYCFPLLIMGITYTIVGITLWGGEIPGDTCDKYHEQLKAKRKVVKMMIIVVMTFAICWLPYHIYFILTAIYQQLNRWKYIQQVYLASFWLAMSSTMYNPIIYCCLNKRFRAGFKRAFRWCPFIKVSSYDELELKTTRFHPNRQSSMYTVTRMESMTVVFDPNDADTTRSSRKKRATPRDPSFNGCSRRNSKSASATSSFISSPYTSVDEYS

`NC(=O)[C@H](Cc1ccccc1)NC(=O)[C@@H](N)Cc1ccccc1` (H-Phe-Phe-NH2) was tested, and the Activity was “inactive”.
